Experimental findings from ChEMBL document CHEMBL3046355, “Design, synthesis, and herbicidal activities of novel 2-cyanoacrylates containing isoxazole moieties” (2010) are described below.

Common to all, as to assay type: functional
Assay [1] has as its system Brassica napus. Briefly: Herbicidal activity against Brassica napus (oilseed rape) assessed as inhibition of weed growth at 375 g/ha using postemergence treatment protocol. To be noted: post-emergence.
In assay [2] the test system is Digitaria sanguinalis. Briefly: Herbicidal activity against Digitaria sanguinalis (hairy crabgrass) assessed as inhibition of weed growth at 1.5 kg/ha using pre-emergence treatment protocol.
In assay [3] the test system is Echinochloa crus-galli. Briefly: Herbicidal activity against Echinochloa crus-galli (barnyard grass) assessed as inhibition of weed growth at 1.5 kg/ha using postemergence treatment protocol. To be noted: post-emergence.
Assay [4] has as its system Brassica napus. Briefly: Herbicidal activity against Brassica napus (oilseed rape) assessed as inhibition of weed growth at 1.5 kg/ha using postemergence treatment protocol. To be noted: post-emergence.
For assay [5], the system named is Brassica napus. Briefly: Herbicidal activity against Brassica napus (oilseed rape) assessed as inhibition of weed growth at 750 g/ha using postemergence treatment protocol. As to conditions: post-emergence.
Assay [6] has as its system Brassica napus. Briefly: Herbicidal activity against Brassica napus (oilseed rape) assessed as inhibition of weed growth at 1.5 kg/ha using preemergence treatment protocol. To be noted: pre-emergence.
The test system of assay [7] is Brassica napus. Briefly: Herbicidal activity against Brassica napus (oilseed rape) assessed as inhibition of weed growth at 75 g/ha using postemergence treatment protocol. As to conditions: post-emergence.
For assay [8], the system named is Amaranthus retroflexus. Briefly: Herbicidal activity against Amaranthus retroflexus assessed as inhibition of weed growth at 75 g/ha using postemergence treatment protocol. To be noted: post-emergence.
Assay [9] deals with Brassica napus. Briefly: Herbicidal activity against Brassica napus (oilseed rape) assessed as inhibition of weed growth at 150 g/ha using postemergence treatment protocol. As to conditions: post-emergence.
The subject of assay [10] is Digitaria sanguinalis. Briefly: Herbicidal activity against Digitaria sanguinalis (hairy crabgrass) assessed as inhibition of weed growth at 1.5 kg/ha using post-emergence treatment protocol.
Assay [11] concerns Amaranthus retroflexus. Briefly: Herbicidal activity against Amaranthus retroflexus assessed as inhibition of weed growth at 150 g/ha using postemergence treatment protocol. As to conditions: post-emergence.
Assay [12] relates to Amaranthus retroflexus. Briefly: Herbicidal activity against Amaranthus retroflexus assessed as inhibition of weed growth at 375 g/ha using postemergence treatment protocol. As to conditions: post-emergence.
For assay [13], the system named is Amaranthus retroflexus. Briefly: Herbicidal activity against Amaranthus retroflexus assessed as inhibition of weed growth at 1.5 kg/ha using preemergence treatment protocol. As to conditions: pre-emergence.
The test system of assay [14] is Echinochloa crus-galli. Briefly: Herbicidal activity against Echinochloa crus-galli (barnyard grass) assessed as inhibition of weed growth at 1.5 kg/ha using preemergence treatment protocol. To be noted: pre-emergence.
The subject of assay [15] is Amaranthus retroflexus. Briefly: Herbicidal activity against Amaranthus retroflexus assessed as inhibition of weed growth at 750 g/ha using postemergence treatment protocol. To be noted: post-emergence.
Assay [16] deals with Amaranthus retroflexus. Briefly: Herbicidal activity against Amaranthus retroflexus assessed as inhibition of weed growth at 1.5 kg/ha using postemergence treatment protocol. As to conditions: post-emergence.

The inhibition is the percentage by which the read-out fell short of the control. Turning to `CCOCCOC(=O)/C(C#N)=C(\NCc1cc(-c2ccc(Cl)cc2Cl)no1)C(C)C`, the inhibition at 375 g/ha in assay [1] and in [12] was 100% each time. For the same compound, the inhibition at 1500 g/ha was 18.1% in assay [2]; 56.7% in assay [3]; 100% in assay [4]; 21.3% in assay [6]; 63.3% in assay [10]; 50.2% in assay [13]. The inhibition at 1500 g/ha in assay [14] is 0%; in [16] it was 100%. In addition, the inhibition at 750 g/ha in assay [5] and in assay [15] was 100% each time. In addition, the inhibition at 75 g/ha in assay [7] worked out at 11.4%; in [8] it was 10.9%. Also, the values for the inhibition at 150 g/ha in assay [9] and in assay [11] were 21.8% and 19.6%, respectively.
In the case of `CCOCCOC(=O)/C(C#N)=C(\NCc1cc(-c2ccc(OC)cc2)no1)C(C)C`, the inhibition at 375 g/ha in [1] and in assay [12] was 100% throughout. For the same compound, the inhibition at 1500 g/ha came out at 0% in assay [2]; 0% in assay [3]; 100% in assay [4]; 40.9% in assay [6]; 14.3% in [10]; 45.2% in [13]. The inhibition at 1500 g/ha was determined as 0% in assay [14] and 100% in [16]. Moreover, the inhibition at 750 g/ha in assay [5] and in assay [15] was 100% in each case. The results for the inhibition at 75 g/ha in [7] and in [8] were 82.5% and 65.2%, respectively. Further, the values for the inhibition at 150 g/ha in [9] and in [11] were 100% and 93.5%, respectively.
As for `CCOCCOC(=O)/C(C#N)=C(\NCc1cc(-c2ccccc2OC)no1)C(C)C`, the inhibition at 375 g/ha in assay [1] and in assay [12] was 100% throughout. Further, the inhibition at 1500 g/ha is 5.5% in assay [2]; 56.4% in assay [3]; 100% in [4]; 17.4% in assay [6]; 82% in [10]; 44.9% in assay [13]. For the same compound, the inhibition at 1500 g/ha in assay [14] amounted to 0%; in [16], 95.1%. Besides, the inhibition at 750 g/ha in [5] and in assay [15] was 100% throughout. For the same compound, the inhibition at 75 g/ha is 17.1% in [7] and 17.4% in assay [8]. In addition, the inhibition at 150 g/ha in assay [9] is 27%; in assay [11] it was 23.9%.
As to `CCOCCOC(=O)/C(C#N)=C(\NCc1cc(-c2ccc(Cl)cc2)no1)C(C)C`, the inhibition at 375 g/ha in [1] and in assay [12] was 100% in each case. Besides, the inhibition at 1500 g/ha in [2] worked out at 0%; in assay [3], 33%; in [4] it was 100%; in assay [6], 10.6%; in assay [10], 64.1%; in assay [13], 68.7%. The inhibition at 1500 g/ha in assay [14] is 0%; in assay [16] it was 100%. The inhibition at 750 g/ha in assay [5] and in assay [15] was 100% each time. The inhibition at 75 g/ha in assay [7] came to 29.6%; in assay [8], 8.7%. Moreover, the inhibition at 150 g/ha was 36.3% in [9] and 26.1% in assay [11].
In the case of `CCOCCOC(=O)/C(C#N)=C(\NCc1cc(-c2ccccc2)no1)C(C)C`, the inhibition at 375 g/ha in assay [1] and in assay [12] was 100% each time. Moreover, the inhibition at 1500 g/ha was 24.9% in [2]; 40% in assay [3]; 100% in [4]; 28.7% in [6]; 59.4% in assay [10]; 88.6% in assay [13]. Further, the results for the inhibition at 1500 g/ha in assay [14] and in assay [16] were 0% and 100%, respectively. Also, the inhibition at 750 g/ha in assay [5] and in assay [15] was 100% throughout. The inhibition at 75 g/ha in assay [7] was determined as 54.2%; in assay [8], 17.4%. Besides, the inhibition at 150 g/ha was determined as 97.3% in [9] and 78.3% in assay [11].
